Laboratory results published in patent publication US8772505B2, “Antiviral compounds composed of three aligned aryl moieties to treat diseases such as hepatitis C” (Merck Sharp & Dohme Corp., priority 2009, dated 2014).

What follows are compounds tested on HCV replicon (assay: Cell-based HCV replicon assay (EC90)). Settings: Hepatitis C virus, 72 h; replicon RNA by real time PCR (Taqman), day 3; class symbols; read-out: Biological Activity (EC90, HCV replicon).
Experimental: To measure cell-based anti-HCV activity of selected compounds of the present invention, replicon cells were seeded at 5000 cells/well in 96-well collagen I-coated Nunc plates in the presence of the test compound. Various concentrations of test compound, typically in 10 serial 2-fold dilutions, were added to the assay mixture, with the starting concentration ranging from 250 μM to 1 μM. The final concentration of DMSO was 0.5%, fetal bovine serum was 5%, in the assay media. Cells were harvested on day 3 by the addition of 1× cell lysis buffer (Ambion cat #8721). The replicon RNA level was measured using real time PCR (Taqman assay). The amplicon was located in 5B. The PCR primers were: 5B.2F, ATGGACAGGCGCCCTGA (SEQ. ID NO. 1); 5B.2R, […] (SEQ. ID NO. 2); the probe sequence was FAM-labeled CACGCCATGCGCTGCGG (SEQ. ID NO. 3). GAPDH RNA was used as endogenous control and was amplified in the same reaction as NS5B (multiplex PCR) using primers and VIC-labeled probe recommended by the manufacturer (PE Applied Biosystem). The real-time RT-PCR reactions were run on ABI PRISM 7900HT Sequence Detection System using the following program: 48° C. for 30 min, 95° C. for 10 min, 40 cycles of 95° C. for 15 sec, 60° C. for 1 min. The ACT values (CT5B-CTGAPDH) were plotted against the concentration of test compound and fitted to the sigmoid dose-response model using XLfit4 (MDL). EC50 was defined as the concentration of inhibitor necessary to achieve ΔCT=1 over the projected baseline; EC90 the concentration necessary to achieve ΔCT=3.2 over the baseline. Alternatively, to quantitate the absolute amount of replicon RNA, a standard curve was established by including serially diluted T7 transcripts of replicon RNA in the Taqman assay. All Taqman reagents were from PE Applied Biosystems. Such an assay procedure was described in detail in e.g. Malcolm et al., Antimicrobial Agents and Chemotherapy 50: 1013-1020 (2006).
HCV replicon assay data was calculated for selected compounds of the present invention using this method.

Row | Structure (SMILES) | EC90
1 | [2H]C([2H])([2H])C([2H])(C([2H])([2H])[2H])[C@]([2H])(NC(=O)OC)C(=O)N1C([2H])([2H])C([2H])([2H])C([2H])([2H])[C@]1([2H])c1nc2ccc(-c3ccc(-c4ccc5nc([C@]6([2H])N(C(=O)[C@@]([2H])(NC(=O)OC)C([2H])(C([2H])([2H])[2H])C([2H])([2H])[2H])C([2H])([2H])C([2H])([2H])C6([2H])[2H])[nH]c5c4)c(OC(F)(F)F)c3)cc2[nH]1 [Compound 135] | < 1 nM
2 | COC(=O)N[C@H](C(=O)N1CCC[C@H]1c1nc2ccc(-c3ccc(-c4ccc5nc([C@@H]6CCCN6C(=O)[C@@H](NC(=O)OC)C(C)C)[nH]c5c4)nc3)cc2[nH]1)C(C)C [Compound 44] | < 1 nM
3 | [2H]C([2H])([2H])C([2H])(C([2H])([2H])[2H])[C@]([2H])(NC(=O)OC)C(=O)N1CCC[C@H]1c1nc2ccc(-c3ccc(-c4ccc5nc([C@@H]6CCCN6C(=O)[C@@]([2H])(NC(=O)OC)C([2H])(C([2H])([2H])[2H])C([2H])([2H])[2H])[nH]c5c4)c(OC(F)(F)F)c3)cc2[nH]1 [Compound 134] | < 1 nM
4 | COC(=O)N[C@H](C(=O)N1CCC[C@H]1c1nc2ccc(-c3cnc(-c4ccc5nc([C@@H]6CCCN6C(=O)[C@@H](NC(=O)OC)C(C)C)[nH]c5c4)cn3)cc2[nH]1)C(C)C [Compound 64] | < 1 nM
5 | COC(=O)N[C@H](C(=O)N1CCC[C@H]1c1nc2ccc(-c3ccc(-c4ccc5nc([C@@H]6CCCN6C(=O)[C@@H](NC(=O)OC)C(C)C)[nH]c5c4)c4ccccc34)cc2[nH]1)C(C)C [Compound 59] | < 1 nM
6 | c1cc(-c2ccc3nc([C@@H]4CCCN4)[nH]c3c2)ncc1-c1ccc2nc([C@@H]3CCCN3)[nH]c2c1 [Compound 43] | > 1000 nM
7 | COC(=O)N[C@H](C(=O)N1CCC[C@H]1c1nc2ccc(-c3ccc(-c4ccc5nc([C@@H]6CCCN6C(=O)[C@@H](NC(=O)OC)C(C)C)[nH]c5c4)s3)cc2[nH]1)C(C)C [Compound 55] | < 1 nM
8 | COC(=O)N[C@H](C(=O)N1CCC[C@H]1c1nc2ccc(-c3cc(-c4ccccc4)c(-c4ccc5nc([C@@H]6CCCN6C(=O)[C@@H](NC(=O)OC)C(C)C)[nH]c5c4)s3)cc2[nH]1)C(C)C [Compound 128] | < 1 nM
9 | COC(=O)N[C@H](C(=O)N1CCC[C@H]1c1nc2ccc(-c3ccc(-c4ccc5nc([C@@H]6CCCN6C(=O)[C@@H](NC(=O)OC)C(C)C)[nH]c5c4)c(OC(F)(F)F)c3)cc2[nH]1)C(C)C [Compound 129] | < 1 nM
10 | COC(=O)N[C@H](C(=O)N1CCC[C@H]1c1nc2ccc(-c3ccc(-c4ccc5nc([C@@H]6CCCN6C(=O)[C@@H](NC(=O)OC)C(C)C)[nH]c5c4)c4c3ccn4C)cc2[nH]1)C(C)C [Compound 133] | < 1 nM
11 | COC(=O)N[C@H](C(=O)N1CCC[C@H]1c1nc2cc(F)c(-c3cc(C)c(-c4cc5[nH]c([C@@H]6CCCN6C(=O)[C@@H](NC(=O)OC)C(C)C)nc5cc4F)s3)cc2[nH]1)C(C)C [Compound 119] | < 1 nM
12 | CCCCc1cc(-c2ccc3nc([C@@H]4CCCN4C(=O)[C@@H](NC(=O)OC)C(C)C)[nH]c3c2)sc1-c1ccc2nc([C@@H]3CCCN3C(=O)[C@@H](NC(=O)OC)C(C)C)[nH]c2c1 [Compound 121] | < 1 nM
13 | CC(=O)N1CCC[C@H]1c1nc2ccc(-c3ccc(-c4ccc5nc([C@@H]6CCCN6C(C)=O)[nH]c5c4)nc3)cc2[nH]1 [Compound 42] | > 1000 nM

Same assay, conditions: Hepatitis C virus, 72 h; replicon RNA by real time PCR (Taqman), day 3; numeric, unit inferred; read-out: Biological Activity (EC90, HCV replicon)

Row | Structure (SMILES) | EC90
14 | C#CC[C@@H](NC(=O)OC)C(=O)N1CCC[C@H]1c1nc2ccc(-c3ccc(-c4ccc5nc([C@@H]6CCCN6C(=O)[C@@H](CC#C)NC(=O)OC)[nH]c5c4)s3)cc2[nH]1 [Compound 99] | 0.2 nM
15 | COC(=O)N[C@H](C(=O)N1CCC[C@H]1c1nc2cc(F)c(-c3ccc(-c4cc5[nH]c([C@@H]6CCCN6C(=O)[C@@H](NC(=O)OC)C(C)C)nc5cc4F)s3)cc2[nH]1)C(C)C [Compound 115] | 0.003 nM
16 | COC(=O)N[C@H](C(=O)N1CCC[C@H]1c1nc2ccc(-c3cc(C)c(-c4ccc5nc([C@@H]6CCCN6C(=O)[C@@H](NC(=O)OC)C(C)C)[nH]c5c4)s3)cc2[nH]1)C(C)C [Compound 103] | 0.005 nM

Same assay, conditions: Hepatitis C virus, 72 h; replicon RNA by real time PCR (Taqman), day 3; numeric; read-out: Biological Activity (EC90, HCV replicon)

Row | Structure (SMILES) | EC90
17 | CCCCc1cc(-c2ccc3nc([C@@H]4CCCN4)[nH]c3c2)sc1-c1ccc2nc([C@@H]3CCCN3)[nH]c2c1 [Compound 72] | 26 nM
18 | COC(=O)N[C@H](C(=O)N1CCC[C@H]1c1ncc(-c2ccc(-c3ccc4nc([C@@H]5CCCN5C(=O)[C@@H](NC(=O)OC)C(C)C)[nH]c4c3)[nH]c2=O)[nH]1)C(C)C [Compound 91] | 6 nM

These compounds were tested on HCV replicon genotype 1b c16 (assay: HCV replicon assay, genotype 1b c16). Settings: Hepatitis C virus.
Assay type: cell-based
Experimental: (§1) To measure cell-based anti-HCV activity of selected compounds of the present invention, replicon cells were seeded at 5000 cells/well in 96-well collagen I-coated Nunc plates in the presence of the test compound. Various concentrations of test compound, typically in 10 serial 2-fold dilutions, were added to the assay mixture, with the starting concentration ranging from 250 μM to 1 μM. The final concentration of DMSO was 0.5%, fetal bovine serum was 5%, in the assay media. Cells were harvested on day 3 by the addition of 1× cell lysis buffer (Ambion cat #8721). The replicon RNA level was measured using real time PCR (Taqman assay). The amplicon was located in 5B. The PCR primers were: 5B.2F, ATGGACAGGCGCCCTGA (SEQ. ID NO. 1); 5B.2R, […] (SEQ. ID NO. 2); the probe sequence was FAM-labeled CACGCCATGCGCTGCGG (SEQ. ID NO. 3). GAPDH RNA was used as endogenous control and was amplified in the same reaction as NS5B (multiplex PCR) using primers and VIC-labeled probe recommended by the manufacturer (PE Applied Biosystem). […] Alternatively, to quantitate the absolute amount of replicon RNA, a standard curve was established by including serially diluted T7 transcripts of replicon RNA in the Taqman assay. […]

Row | Structure (SMILES) | EC50
19 | COC(=O)N[C@H](C(=O)N1CCC[C@H]1c1nc2ccc(-c3ccc(-c4ccc5nc([C@@H]6CCCN6C(=O)[C@@H](NC(=O)OC)C(C)C)[nH]c5c4)c(OC(F)(F)F)c3)cc2[nH]1)C(C)C [Compound 129] | 0.003 nM

Each compound was assayed on HCV replicon genotype 1a 1A7 (assay: HCV replicon assay, genotype 1a 1A7). Settings: Hepatitis C virus.
Assay type: cell-based
Experimental: as §1

Row | Structure (SMILES) | EC50
20 | COC(=O)N[C@H](C(=O)N1CCC[C@H]1c1nc2ccc(-c3ccc(-c4ccc5nc([C@@H]6CCCN6C(=O)[C@@H](NC(=O)OC)C(C)C)[nH]c5c4)c(OC(F)(F)F)c3)cc2[nH]1)C(C)C [Compound 129] | 0.05 nM
